Holding throughout (assay): DTP human tumour cell line panel, 48 h
Assay [1] concerns KM20L2 colon.
Assay [2] deals with DU-145 prostate.
In assay [3] the test system is T-47D breast.
The subject of assay [4] is MDA-N.

Several values for one entry are separate records, joined by “and”; a condition that tells them apart may be missing. Equal entries are not always repeated.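 Following 48 hours of exposure in 96-well plates, responses at five concentrations were used to interpolate endpoints linearly. Here, GI50 denotes the concentration required for 50% inhibition of growth. Definition used: TGI = concentration required for complete inhibition of growth.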

Compound `CC1=C2C(=CC(C)(C)C2O)C(=O)C(C)(O)C12CC2` (stereo not given) registered a total growth inhibition concentration (TGI) in assay [1] of 0.0522 µM.

As for `O=C(NC[C@H](O)CO)c1ccncc1Nc1ccc(I)cc1F`, the GI50 in assay [2] is > 10 µM and 17.8 µM; in assay [3], > 10 µM and 19.3 µM. For the same compound, the TGI in assay [2] and in assay [3] was > 100 µM in each case.

As to `C1CN(SSN2CCOCC2)CCO1`, in assay [2], the GI50 is > 100 µM and the TGI is > 100 µM. Also, in assay [3], the GI50 was 45 µM and the TGI is > 100 µM.

`COc1c2c(nc3ccccc13)-c1cc3c(c(=O)n1C2)COC(=O)C3(O)CC(=O)N1CCOCC1` (stereo not given): the TGI in assay [1] is > 100 µM; in assay [2] it was 17.7 µM; in assay [3] it was 72.3 µM; in assay [4], > 100 µM.

Turning to `O=C(Nc1ccc(Cl)c(Cl)c1)O/N=C\c1c(Cl)ccc([N+](=O)[O-])c1Cl`, the figures for the GI50 in assay [2] and in assay [3] were 1.73 µM and 0.778 µM, respectively. For the same compound, the total growth inhibition concentration (TGI) came out at 3.23 µM in assay [2] and 3.54 µM in assay [3].

With `O=C(/C=C/c1ccc([N+](=O)[O-])cc1)c1ccc2c3c(cccc13)CC2`, the GI50 in assay [2] was 4.23 µM; in assay [3] it was 1.57 µM. Also, the total growth inhibition concentration (TGI) in assay [2] was > 40.9 µM; in assay [3], > 24.8 µM.

For the compound `Nc1[nH]nc2nc(-c3cccs3)cc(C(F)(F)F)c12`, the GI50 in assay [2] and in assay [3] was > 25 µM each time. Further, the concentration for total growth inhibition (TGI) in assay [2] and in assay [3] was > 25 µM throughout.

With `Nc1nc(Nc2ccc(C3CCC(N4CCOCC4)CC3)cc2)nn1-c1ccccn1` (stereo not given), in assay [2], the GI50 was 6.4 µM and the total growth inhibition concentration (TGI) was > 100 µM. Moreover, in assay [3], the GI50 was > 31.5 µM and the total growth inhibition concentration (TGI) is > 100 µM.

Regarding `CCSCCCN(CCCSCC)CCCSCC`, the concentration for total growth inhibition (TGI) in assay [2], in assay [3] and in assay [4] was > 100 µM each time.

With `CS[C@]12C(=O)C[C@@]3(C)[C@@H](CC[C@]3(O)C(=O)CO)[C@@H]1CCC1=CC(=O)CC[C@@]12C`, the results for the TGI in assay [2], in assay [3] and in assay [4] were > 100 µM, > 100 µM and 69.4 µM, respectively.

As for `COc1ccc(C2SC(C)C(=O)N2NC(=O)C(O)c2ccccc2)cc1OC` (stereo not given), the GI50 in assay [2] and in assay [3] was > 100 µM each time. In addition, the TGI in assay [2] and in assay [3] was > 100 µM each time.

For the compound `C/C=C(\C)C(=O)O[C@H]1C=CC(=O)O[C@@H]1CC[C@H](O)[C@H](C)O`, in assay [2], the GI50 was 34 µM and the concentration for total growth inhibition (TGI) is > 100 µM. Besides, in assay [3], the GI50 is 38.6 µM and the TGI was > 87.1 µM.

For `Cc1ccc(C)c(NC(=O)CC/C(=N\NC(=O)c2c(O)ccc3ccccc23)C(C)C(=O)c2ccc(O)cc2)c1` (stereo not given), the concentration for total growth inhibition (TGI) in assay [1] was found to be 30 µM. That is a double-digit micromolar value.

For `O=S1(=O)OCCOS(=O)(=O)C1Cc1ccccc1`, the TGI in assay [1] is > 100 µM.

Turning to `O=C(Nc1cccc(NC(=O)Nc2cc(C(F)(F)F)ccc2Cl)c1)Nc1cc(C(F)(F)F)ccc1Cl`, the results for the GI50 in assay [2] and in assay [3] were 4.11 µM and 0.407 µM, respectively. Besides, the values for the concentration for total growth inhibition (TGI) in assay [2] and in assay [3] were 17.8 µM and 11.4 µM, respectively.

Consider `[N-]=[N+]=NC(CI)c1cn([C@H]2C[C@H](O)[C@@H](CO)O2)c(=O)[nH]c1=O` (stereo not given in full), for which, in assay [1], the TGI is > 100 µM.

With `CC1(C)[C@@H](OC(N)=O)[C@H]2O[C@H]2[C@]2(CO)[C@H]3CC[C@]4(C)[C@@H](c5ccc(=O)oc5)[C@@H](Cl)C[C@]4(O)C3=CC[C@@H]12`, the GI50 is 0.00509 µM in assay [2] and 0.0076 µM in assay [3]. The concentration for total growth inhibition (TGI) came to 0.0106 µM in assay [2] and 0.0333 µM in assay [3].

For the compound `CC#CC(=O)SCCNC(=O)CC`, the concentration for total growth inhibition (TGI) in assay [2], in assay [3] and in assay [4] was > 10 µM in each case.

In the case of `COc1cc(C2C(Cl)C(=O)N2NC(=O)c2ccc(N)cc2)ccc1O` (stereo not given), the TGI in assay [1] was > 100 µM.

Consider `C[CH2][Sn]([CH2]C)([O]C(=O)C(OC(C)=O)c1ccccc1)[O]C(=O)C(OC(C)=O)c1ccccc1` (stereo not given), for which the GI50 in assay [2] is 94.7 µM; in assay [3] it was 12.9 µM; in assay [4], 50 µM. The results for the TGI in assay [2], in assay [3] and in assay [4] were > 100 µM, 28 µM and > 100 µM, respectively.

For `O=[N+]([O-])c1cccc([As]=[As]c2cccc([N+](=O)[O-])c2)c1` (stereo not given), in assay [2], the concentration for 50% growth inhibition (GI50) was 0.163 µM and the concentration for total growth inhibition (TGI) is 0.309 µM. Moreover, in assay [3], the concentration for 50% growth inhibition (GI50) is 0.0358 µM and the TGI worked out at 0.164 µM.

Turning to `O=C(Nc1ccc(Cl)cc1)Nc1ccc(Nc2nncc3ccccc23)cc1`, the GI50 in assay [2] is 3.17 µM; in assay [3], 1.03 µM. For the same compound, the values for the TGI in assay [2] and in assay [3] were 26.9 µM and 5.35 µM, respectively.

As to `COc1ccc(/C=C2\S/C(=N/Nc3nc(-c4ccccc4)cs3)NC2=O)cc1OC`, the total growth inhibition concentration (TGI) in assay [2] is > 100 µM; in assay [4], 33.7 µM.

As to `CCCOC(=O)N1CCN(/[N+]([O-])=N/Oc2ccc([N+](=O)[O-])cc2[N+](=O)[O-])CC1`, in assay [2], the GI50 is 1.81 µM and the TGI came out at 3.53 µM.

Regarding `COC(=O)c1cc2ccc(OC(C)=O)c(OC(C)=O)c2cn1`, the concentration for total growth inhibition (TGI) was 76.3 µM in assay [2]; 2.93 µM and 3.68 µM in assay [4]. The GI50 in assay [4] is 2.03 µM.

On to `Clc1nc(Cl)c2ncn(C/C=C/COc3cccc(OC/C=C/Cn4cnc5c(Cl)nc(Cl)nc54)c3)c2n1`, for which, in assay [2], the GI50 is 14.7 µM and the TGI was found to be 27.8 µM. Besides, in assay [3], the GI50 is 99.8 µM and the TGI is > 100 µM.

On to `CC(=O)C1C(=O)C(=O)N(c2ccccc2C(C)C)C1=O` (stereo not given), for which, in assay [1], the TGI is > 100 µM.

For `COc1ccc(OC)c2c1C(=O)C1CC1(Br)C2=O` (stereo not given), the TGI in assay [1] was > 100 µM.

With `Cc1c2c(nn1C)CSCc1cc(n(C)n1)CSc1cc(c3ccccc3c1)OCCCc1c(C(=O)O)n(C)c3c-2c(Cl)ccc13`, in assay [2], the GI50 is 4.52 µM and the TGI was 15.9 µM. In addition, in assay [3], the GI50 is 3.88 µM and the TGI is 15.7 µM.

For `COC(=O)C1=C(c2cc(OC)c(OC)c(OC)c2)OC(c2ccc(OC)c(OC)c2)C1` (stereo not given), in assay [1], the TGI is > 100 µM.

The record behind these values is PubChem BioAssay (NCI).
